From the supplement of paper PMC10307832

Tests used:
Experiment in all cases: relative viability (nuclei count vs DMSO), 5 days (fraction); higher = more cells survive
Bleomycin + Foretinib = compound: CC1=C(N=C(N=C1N)[C@H](CC(=O)N)NC[C@@H](C(=O)N)N)C(=O)N[C@@H]([C@H](C2=CN=CN2)OC3C(C(C(C(O3)CO)O)O)OC4C(C(C(C(O4)CO)O)OC(=O)N)O)C(=O)N[C@H](C)[C@H]([C@H](C)C(=O)N[C@@H]([C@@H](C)O)C(=O)NCCC5=NC(=CS5)C6=NC(=CS6)C(=O)NCCC[S+](C)C)O [Bleomycin] + COc1cc2c(Oc3ccc(NC(=O)C4(C(=O)Nc5ccc(F)cc5)CC4)cc3F)ccnc2cc1OCCCN1CCOCC1 [Foretinib] (partner 0.25 µM); settings: main component drawn
In short: (§1)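 Values are medians from duplicate plates. Each reflects relative viability, defined as the nuclei count of treated wells over that of vehicle wells. Lung cancer cell lines in 1536-well plates were pin-tool dosed one day after seeding with one drug alone or with a fixed anchor-drug dose plus five library-drug doses (not always all listed) in √10 steps, then fixed, stained and imaged at 4× after 5 days.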

Bleomycin + Vorinostat = compound: CC1=C(N=C(N=C1N)[C@H](CC(=O)N)NC[C@@H](C(=O)N)N)C(=O)N[C@@H]([C@H](C2=CN=CN2)OC3C(C(C(C(O3)CO)O)O)OC4C(C(C(C(O4)CO)O)OC(=O)N)O)C(=O)N[C@H](C)[C@H]([C@H](C)C(=O)N[C@@H]([C@@H](C)O)C(=O)NCCC5=NC(=CS5)C6=NC(=CS6)C(=O)NCCC[S+](C)C)O [Bleomycin] + O=C(CCCCCCC(=O)Nc1ccccc1)NO [Vorinostat] (partner 1 µM); settings: main component drawn
In short: as §1

Etoposide + Trametinib = compound: COc1cc([C@@H]2c3cc4c(cc3[C@@H](O[C@@H]3O[C@@H]5CO[C@@H](C)O[C@H]5[C@H](O)[C@H]3O)[C@H]3COC(=O)[C@H]23)OCO4)cc(OC)c1O [Etoposide] + CC(=O)Nc1cccc(-n2c(=O)n(C3CC3)c(=O)c3c(Nc4ccc(I)cc4F)n(C)c(=O)c(C)c32)c1 [Trametinib] (partner 0.02 µM)
In short: as §1

Etoposide + Navitoclax = compound: COc1cc([C@@H]2c3cc4c(cc3[C@@H](O[C@@H]3O[C@@H]5CO[C@@H](C)O[C@H]5[C@H](O)[C@H]3O)[C@H]3COC(=O)[C@H]23)OCO4)cc(OC)c1O [Etoposide] + CC1(C)CCC(c2ccc(Cl)cc2)=C(CN2CCN(c3ccc(C(=O)NS(=O)(=O)c4ccc(N[C@H](CCN5CCOCC5)CSc5ccccc5)c(S(=O)(=O)C(F)(F)F)c4)cc3)CC2)C1 [Navitoclax] (partner 0.5 µM)
In short: as §1

| Cell Line | relative viability (Bleomycin + Foretinib; first compound 0.01 µM) | relative viability (Bleomycin + Foretinib; first compound 0.03162 µM) | relative viability (Bleomycin + Foretinib; first compound 0.1 µM) | relative viability (Bleomycin + Foretinib; first compound 0.3162 µM) | relative viability (Bleomycin + Foretinib; first compound 1 µM) | relative viability (Bleomycin + Vorinostat; first compound 0.01 µM) | relative viability (Bleomycin + Vorinostat; first compound 0.03162 µM) | relative viability (Bleomycin + Vorinostat; first compound 0.1 µM) | relative viability (Bleomycin + Vorinostat; first compound 0.3162 µM) | relative viability (Bleomycin + Vorinostat; first compound 1 µM) | relative viability (Etoposide + Trametinib; first compound 0.01 µM) | relative viability (Etoposide + Trametinib; first compound 0.03162 µM) | relative viability (Etoposide + Trametinib; first compound 0.1 µM) | relative viability (Etoposide + Trametinib; first compound 0.3162 µM) | relative viability (Etoposide + Trametinib; first compound 1 µM) | relative viability (Etoposide + Navitoclax; first compound 0.01 µM) | relative viability (Etoposide + Navitoclax; first compound 0.03162 µM) | relative viability (Etoposide + Navitoclax; first compound 0.1 µM) | relative viability (Etoposide + Navitoclax; first compound 0.3162 µM) | relative viability (Etoposide + Navitoclax; first compound 1 µM) |
| --- | --- | --- | --- | --- | --- | --- | --- | --- | --- | --- | --- | --- | --- | --- | --- | --- | --- | --- | --- | --- |
| LCLC-103H | 0.683 | 0.765 | 0.677 | 0.382 | 0.343 | 0.678 | 0.625 | 0.704 | 0.654 | 0.417 | 0.607 | 0.748 | 0.742 | 0.64 | 0.582 |  |  |  |  |  |
| NCI-H358 | 0.606 | 0.591 | 0.556 | 0.351 | 0.254 | 0.539 | 0.722 | 0.661 | 0.327 | 0.217 | 0.141 | 0.122 | 0.119 | 0.118 | 0.0938 |  |  |  |  |  |
| NCI-H522 |  |  |  |  |  | 0.979 | 0.911 | 0.739 | 0.525 | 0.374 | 0.756 | 0.875 | 0.744 | 0.703 | 0.649 |  |  |  |  |  |
| NCI-H650 | 0.837 | 0.915 | 0.823 | 0.564 | 0.288 | 0.295 | 0.441 | 0.376 | 0.328 | 0.212 | 0.884 | 0.951 | 0.681 | 0.527 | 0.195 |  |  |  |  |  |
| NCI-H661 | 0.896 | 0.924 | 0.689 | 0.393 | 0.357 | 0.777 | 0.708 | 0.565 | 0.376 | 0.346 | 0.567 | 0.639 | 0.398 | 0.51 | 0.388 |  |  |  |  |  |
| NCI-H1299 | 1.07 | 1.08 | 0.934 | 0.497 | 0.277 |  |  |  |  |  |  |  |  |  |  | 1.06 | 1.02 | 1.05 | 0.946 | 0.785 |
| NCI-H1563 | 0.838 | 0.803 | 0.734 | 0.647 | 0.61 |  |  |  |  |  |  |  |  |  |  |  |  |  |  |  |
| NCI-H1623 | 0.758 | 0.942 | 0.774 | 0.646 | 0.418 |  |  |  |  |  |  |  |  |  |  |  |  |  |  |  |
| NCI-H1648 |  |  |  |  |  | 0.46 | 0.324 | 0.275 | 0.257 | 0.271 |  | 0.552 | 0.362 | 0.523 | 0.416 |  |  |  |  |  |
| NCI-H1703 | 0.298 | 0.325 | 0.306 | 0.283 | 0.275 |  |  |  |  |  |  |  |  |  |  | 1.04 | 1.12 | 0.575 | 0.527 | 0.307 |
| NCI-H1792 |  |  |  |  |  |  |  |  |  |  | 0.47 | 0.5 |  | 0.371 | 0.335 | 0.716 | 0.59 | 0.507 | 0.567 | 0.394 |
| NCI-H2342 | 0.874 | 0.996 | 1.03 | 0.698 | 0.918 | 0.786 | 0.735 | 0.652 | 0.551 | 0.491 | 0.777 | 0.881 | 0.505 | 0.355 | 0.344 |  |  |  |  |  |
| SW 900 | 0.629 | 0.386 | 0.465 | 0.211 | 0.161 | 0.403 | 0.513 | 0.427 | 0.207 | 0.217 | 0.741 | 0.653 | 0.649 | 0.354 | 0.25 |  |  |  |  |  |
